Source: publication doi:10.1101/2021.12.08.471775v2 (biorxiv, 2022)

Target: α4β2Rs (rat α4β2 nAChRs) (Rattus norvegicus, UniProt P09483+P12390)
Type: cell-based

α4β2Rs (rat α4β2 nAChRs), sequence (P09483 31-630): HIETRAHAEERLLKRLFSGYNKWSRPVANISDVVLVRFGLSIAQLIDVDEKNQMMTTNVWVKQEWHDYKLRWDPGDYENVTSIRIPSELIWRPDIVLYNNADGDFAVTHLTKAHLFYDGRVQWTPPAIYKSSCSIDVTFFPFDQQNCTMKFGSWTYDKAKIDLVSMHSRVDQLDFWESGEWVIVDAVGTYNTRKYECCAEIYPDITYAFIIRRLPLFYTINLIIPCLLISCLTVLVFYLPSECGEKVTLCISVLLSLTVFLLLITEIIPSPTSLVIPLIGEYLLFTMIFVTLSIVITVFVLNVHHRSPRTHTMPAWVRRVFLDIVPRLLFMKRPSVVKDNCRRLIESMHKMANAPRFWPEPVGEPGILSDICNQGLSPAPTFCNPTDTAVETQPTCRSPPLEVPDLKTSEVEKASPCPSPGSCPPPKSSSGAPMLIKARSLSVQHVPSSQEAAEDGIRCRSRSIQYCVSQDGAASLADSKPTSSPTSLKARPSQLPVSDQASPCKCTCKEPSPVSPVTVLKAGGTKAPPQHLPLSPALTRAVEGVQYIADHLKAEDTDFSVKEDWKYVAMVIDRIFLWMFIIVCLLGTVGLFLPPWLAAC
α4β2Rs (rat α4β2 nAChRs), sequence (P12390 25-500): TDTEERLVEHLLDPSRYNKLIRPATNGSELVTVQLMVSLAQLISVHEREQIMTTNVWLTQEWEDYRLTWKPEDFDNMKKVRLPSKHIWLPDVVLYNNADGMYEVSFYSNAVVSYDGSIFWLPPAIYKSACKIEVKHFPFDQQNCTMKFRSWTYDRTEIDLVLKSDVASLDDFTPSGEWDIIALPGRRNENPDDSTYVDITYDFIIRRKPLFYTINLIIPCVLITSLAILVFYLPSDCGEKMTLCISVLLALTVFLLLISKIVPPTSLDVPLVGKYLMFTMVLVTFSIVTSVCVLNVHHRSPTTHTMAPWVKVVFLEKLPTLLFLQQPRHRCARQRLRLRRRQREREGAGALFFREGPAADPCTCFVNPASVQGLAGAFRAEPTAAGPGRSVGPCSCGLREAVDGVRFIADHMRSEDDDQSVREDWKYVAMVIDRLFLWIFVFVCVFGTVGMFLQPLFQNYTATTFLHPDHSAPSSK

**Q.** How did the Ki turn out when `Fc1ncccc1OC[C@@H]1C=CCN1` [Nifene] was run?
**A.** 310 pM
